Reference: publication PMC3549917, “Characterization of two antimicrobial peptides produced by a halotolerant Bacillus subtilis strain SK.DU.4 isolated from a rhizosphere soil sample” (AMB Express, 2013)
Where no end group is shown, it is not given here.

Tests used:
Test in all cases: Well diffusion assay, inhibition spectrum
Format in all cases: cell-based
B. subtilis MTCC121 = settings: Polymyxin B at 300 U
Experimental: (§1) The bacteriocin activity was determined by well diffusion assay. The strain was grown for 24 h in 200 ml nutrient broth (NB, Himedia) using 500 ml flask and subsequently cells were removed by centrifugation (8000 rpm for 20 min, 4°C). The supernatant obtained was filtered by using 0.22 μm filter (Millipore), diluted by two fold and used to test the activity as mentioned earlier (Singh et al. [2012]). The antimicrobial peptide production was also tested by growing the strain in minimal medium. To examine the antimicrobial activity, S. aureus cells were processed for scanning electron micrograph (SEM) as described by earlier (Singh et al. [2012]). Growth curve was prepared to examine the bacteriocin production along with the growth of strain SK.DU4.
(§2) Although the antimicrobial peptides were produced in NB for large scale preparation, the influence of different carbon and nitrogen sources on peptides production was tested using minimal medium. […] The optimum pH for the production of antimicrobial peptides was 7.2 and there was no significant change in pH was observed during the production of antimicrobial peptides. The bacteriocin-like peptide was extracted from CFB by hydrophobic interaction chromatography using Diaion HP-20 beads and purified by a combination of chromatography techniques as described previously (Singh et al. [2012]). Subsequently, the purified peptide was tested for antimicrobial activity against an array of Gram-positive and Gram-negative bacteria, yeasts and fungi strains using well diffusion assays.

L. monocytogenes MTCC839 = settings: 100 μl of the lowest dilution inhibiting test strain, similar results in three individual experiments
Experimental: as §1, §2

M. luteus MTCC106 = settings: 100 μl of the lowest dilution inhibiting test strain, similar results in three individual experiments
Experimental: as §1, §2

S. mutans MTCC497 = settings: lipopeptide combined with bacteriocin-like peptide
Experimental: as §1, §2

DYNQPNS (also: lariat or depsi (positions not given here)) [Lipopeptide, cyclic iturin-like lipopeptide (m/z 1056 Da), β-hydroxy fatty acid linked to Ser of heptapeptide, from strain SK.DU.4]
Inhibition activity (B. subtilis MTCC121): inhibited growth
inhibition zone (L. monocytogenes MTCC839): 11 mm
inhibition zone (M. luteus MTCC106): 11 mm
growth inhibition in combination with bacteriocin-like peptide (S. mutans MTCC497): inhibited the growth
